One experiment concerns AD. Particulars: racemic mixture at a dose of 25 mg per day, pilot clinical trial; cited from earlier work.
In experiment [1] the test system is hippocampal CA3-CA1 pathway of 5×FAD+/− mice. Nature of the experiment: Long-term potentiation / fEPSP recording in hippocampal slices from treated 5×FAD+/− mice. To be noted: 3.2 mg/kg/day for one month started at 2-3 months of age (before AD symptoms), slices at 3-4 months; vs DMSO. The class given is in vivo, mouse. As for the experimental part:
Adult genetically engineered mice, 5×FAD^+/− (Oakley et al., 2006), RyR2-E4872Q^+/− (EQ^+/−) (Chen et al., 2014), 5×FAD^+/−/RyR2-E4872Q^+/− (5×FAD^+/−/EQ^+/−), and wildtype (WT) littermates of both sexes were used. R-carvedilol (R-CV) (at doses of 0.8, 1.6 or 3.2 mg/kg/day), racemic carvedilol (3.2 mg/kg/day), and vehicle control (DMSO) were delivered to 5×FAD^+/− mice in drinking water for one month, starting at different ages before (2-3 months old) or after (3-4 months old) the occurrence of AD pathologies (Oakley et al., 2006). To assess the effects of genetically and pharmacologically limiting RyR2 open time on the prevention and rescue of AD deficits in different stages (early, moderate, and late) of AD progression, animals at different ages (from 2-15 months) were used. […] For 2-photon Ca^2+ imaging experiments, 5×FAD, RyR2 WT, and RyR2 mutant mice were cross-bred with the heterozygous Thy1-GCaMP6f transgenic mice (Chen et al., 2012; Chen et al., 2013) (GP5.17, JAX 025393) to express the GCaMP6f Ca^2+ sensing probe (driven by the Thy1 promotor) in hippocampal neurons in each of the genotypes used.
Schaffer collateral fibers were stimulated at the CA3 subfield to record field excitatory postsynaptic potentials (fEPSPs) in the CA1 stratum radiatum of transverse hippocampal slices ([…]) from all genotypes and drug-treated mice at different ages. After recovering at room temperature for 1 h (or 2 h for brain slices from drug-treated mice), hippocampal slices were allowed to recover in the recording chamber for additional 10 min. To evaluate basal synaptic transmission, different stimulation strengths (0 μA to 200 μA in steps of 20 μA) were applied and plotted fEPSP slopes versus the current input to compare the slope of input/output (I/O) curves of fEPSP. In the experiments that followed, stimulus current was adjusted so that fEPSP stabilized at 40-50% of maximum. Baseline was recorded for at least […] until the differences among fEPSP slopes were within 10%. Long-term potentiation (LTP) was induced using a tetanic high-frequency stimulation (HFS; 4 trains of 100 pulses at 100 Hz, with 20-sec intervals). Synaptic responses were recorded for at least 60 min after tetanization and quantified as the slope of the evoked fEPSP as percentage of the baseline.

For another experiment, the system named is 5×FAD+/− mice. Nature of the experiment: Learning and memory tests (Morris water maze, novel object recognition) in 5×FAD+/− mice. It is filed as in vivo, mouse. Particulars: 3.2 mg/kg/day for one month started at 2-3 months of age (before AD symptoms), tested at 3-4 months; vs DMSO. As for the experimental part:
Adult genetically engineered mice, 5×FAD^+/− (Oakley et al., 2006), RyR2-E4872Q^+/− (EQ^+/−) (Chen et al., 2014), 5×FAD^+/−/RyR2-E4872Q^+/− (5×FAD^+/−/EQ^+/−), and wildtype (WT) littermates of both sexes were used. R-carvedilol (R-CV) (at doses of 0.8, 1.6 or 3.2 mg/kg/day), racemic carvedilol (3.2 mg/kg/day), and vehicle control (DMSO) were delivered to 5×FAD^+/− mice in drinking water for one month, starting at different ages before (2-3 months old) or after (3-4 months old) the occurrence of AD pathologies (Oakley et al., 2006). To assess the effects of genetically and pharmacologically limiting RyR2 open time on the prevention and rescue of AD deficits in different stages (early, moderate, and late) of AD progression, animals at different ages (from 2-15 months) were used. As reported (Oakley et al., 2006), there was an age-dependence of AD progression in the 5×FAD^+/− mice. No sex-dependent differences in AD progression in these mice was observed. For 2-photon Ca^2+ imaging experiments, 5×FAD, RyR2 WT, and RyR2 mutant mice were cross-bred with the heterozygous Thy1-GCaMP6f transgenic mice (Chen et al., 2012; Chen et al., 2013) (GP5.17, JAX 025393) to express the GCaMP6f Ca^2+ sensing probe (driven by the Thy1 promotor) in hippocampal neurons in each of the genotypes used.
The learning and memory of mice with all genotypes were evaluated using the Morris water maze (MWM) test, the Barnes maze (BM) test, and/or the novel object recognition (NOR) test. Experiments were carried out blindly. For the MWM test, mice at different ages were trained to localize a hidden escape platform (10×10 cm) in a circular pool (116.84 cm in diameter, 50 cm in depth) (San Diego Instruments, CA) via distal visual cue. The platform was submerged 1-2 cm beneath the surface in water (22-24°C.), which was rendered opaque by addition of milk powder. The localization of the pool in relation to visual cues was maintained constantly during the entire task. The cues were distinct in color and shape. Digital division of the tracking area (pool) into four quadrants was performed by the SMART video tracking system, Smart 3.0 (Panlab Harvard Apparatus; Barcelona Spain). The escape platform was placed in the centre of the south-west quadrant for the entirety of the learning phase (4 training days) and digitally defined as target. Spatial training consisted of 4 days with 5 trials per mouse per day. Mice were released with their heads facing the pool wall at one of four entry locations (north, east, south and west) in a non-repetitive random order. Swimming was automatically video-tracked until the subject found the escape platform and remained on it (≥5 sec), or until a maximum of 60 seconds. […] In between trials (inter-trial interval ≥10 min), mice were housed in heated cages to avoid performance deficits due to exhaustion or hypothermia. The latency and swimming speed to reach the escape platform were recorded for comparison. After the learning phase, memory retention was evaluated by one probe trial 24 hours after the last training session. The escape platform was removed before mice were released from the north entry point into the pool. Their swimming was video-tracked for 60 seconds. The area at the location of the removed hidden platform was defined as the target and the south-west quadrant the target quadrant. The percentage of time mice spent in the target quadrant (including the target) were measured for comparison.
For the NOR test, mice were habituated for 10 min per mouse in an equally illuminated, odor-free, white, plastic box (40×40×50 cm^3) embedded with fresh aspen shavings and shreds. In between each mouse trial the box was wiped with ethanol to avoid odor-induced stress. 24 hours after habituation, two identical objects ware placed at equal distance to each other and the corners of the box. Each mouse was placed into the center, and allowed to move freely for 10 min. Mice were video recorded during this familiarizing phase. […]

Another experiment deals with oligomeric Aβ. Particulars: chronic treatment, animal studies; cited from earlier work.
Experiment [2] deals with ryanodine receptor (RyR2). To be noted: cited from earlier work.
Experiment [3] deals with Kv4.2/KChIP4 channel complex. In words: Whole-cell A-type K+ current recording in Kv4.2/KChIP4 transfected HEK293 cells expressing RyR2 WT. The class given is cell-based. Particulars: caffeine 2.5 mM, 2 min after application vs baseline. As for the experimental part:
Previous studies used whole-cell patch clamp recordings at the soma of CA1 pyramidal cells to measure the whole-cell A-type K^+ current (Chen, 2005; Good et al., 1996; Hall et al., 2015; Scala et al., 2015). To make comparisons to earlier studies, the same approach was employed. Briefly, whole-cell A-type K^+ current (IA) was elicited by depolarizing pulses to +40 mV from a holding potential of −100 mV in the presence of 20 mM tetraethylammonium (TEA) and 100 nM tetrodotoxin (TTX). In steady-state activation experiments, membrane potential was held at −100 mV, and IA was evoked by a 200-ms depolarizing pulse from a first pulse potential of −80 mV to +80 my in 10-mV steps at 10-s intervals, Data were analyzed using the equation GK=IK/(Vm−Vrev), where GK is the membrane K^+ conductance, Vm is the membrane potential, and Vrev is the reversal potential for K^+. To study steady-state inactivation of IA, currents were elicited using 1-s conditioning pre-pulses from −110 mV to 0 mV before a 200-ms test pulse of +50 mV. After normalizing each current amplitude to the maximal current, amplitude obtained from the −110 mV pre-pulse was used as a function of the conditioning pre-pulse potential and fitted with the function IA/IA−max=1/(1+exp((Vm1/2−Vm)/k)), from which, an inactivation curve of IA was obtained, and the VH value (the voltage at which the current amplitude was half-inactivated) was calculated. The somatic whole-cell recordings provide information on the magnitude of somatic A-type K^+ current, an important determinant of somatic excitability.
For HEK293 cell experiments, HEK293 cell lines were maintained as previously described (Jiang et al., 2004) and transiently transfected with cDNAs of Kv4.2 and KChIP4 together with cDNA encoding for GFP to identify cells successfully transfected. 12-16 h before recording, tetracycline was added to culture media to induce the expression of RyR2 WI or RyR2 E4872Q mutant. IA was recorded with the same protocols as described above. Prior to IA recording, the culture medium was replaced with a bath solution (NaCl, 125 mM; KCl, 2.5 mM; HEPES, 10 mM; MgCl2, 1 mM; glucose, 10 mM; TEA, 20 mM; pH 7.4 adjusted with NaOH).

The subject of experiment [4] is 5×FAD+/− CA1 pyramidal neurons. In words: Whole-cell patch-clamp recording of action potential firing in 5×FAD+/− CA1 pyramidal neurons in brain slices. It is filed as cell-based, mouse. To be noted: 10 μM, 3-4 months old 5×FAD+/− CA1 pyramidal neurons. On the procedure:
Acute brain slices were prepared according to the published procedures with some modifications (Ting et al., 2014; Ting et al., 2018).
For whole-cell patch-clamp recordings, slices were transferred to a submerged recording chamber perfused with carbogenated external solutions at a flow rate of 4-6 mL/min at room temperature. Action potentials (APs) were measured in hippocampal CA1 pyramidal neurons in transverse hippocampal slices (260 μm) from all genotypes of 3-4 months old mice using whole-cell patch-clamp with an […] amplifier (Axon Instruments). […] Membrane potentials in 5-6 months old or older neurons were not measured as aged neurons are difficult to patch. AP firing was recorded in an external solution (NaCl, 124 mM; KCl, 2.5 mM; NaH2PO4, 1.25 mM; NaHCO3, 24 mM; HEPES, 5 mM; glucose, 12.5 mM; MgCl2, 2 mM; and CaCl2, 2 mM; pH 7.4 adjusted with NaOH) and soft-glass recording pipettes (Sutter Instruments; Novato CA) filled with an internal solution (potassium gluconate, 135 mM, KCl, 10 mM, HEPES, 10 mM, CaCl2, 1 mM, MgCl2, 1 mM, EGTA, 10 mM, ATP, 1 mM, GTP, 0.1 mM, and pH 7.3 adjusted with KOH). […] For spontaneous AP recording, cells were hold at −70 mV and recorded for 3 min. […] For testing the Kv4 channel agonist NS5806, APs were measured before and 15 min after perfusion of 10 μM NS5806 in the external solution. […]
In general terms: Patch clamp records ionic current or voltage across a cell membrane.

`COc1ccccc1OCCNCC(O)COc1cccc2[nH]c3ccccc3c12` (racemic) [Racemic carvedilol, carvedilol]: the “improvement in AD” value in the experiment on AD is given as “no significant improvement”. In addition, the LTP impairment result in experiment [1] is “did not prevent”. The “memory loss / learning and memory deficits (MWM, NOR)” value in the experiment on 5×FAD+/− mice is “did not prevent”. The “content of oligomeric Aβ in the brain” value in the experiment on oligomeric Aβ is “significantly reduced”. Moreover, the “store-overload-induced Ca2+ release” value in experiment [2] is recorded as “reduces”.

`Cn1c(=O)c2c(ncn2C)n(C)c1=O` [Caffeine]: in experiment [3], the Kv4.2-mediated current result is given as “decreased”, the “decay time (inactivation time constant Tau) of Kv4.2-mediated current” value is reported as “decreased”, the “voltage-dependent activation of Kv4.2-mediated current” value is “without altering” and the “voltage-dependent inactivation of Kv4.2-mediated current” value is given as “without altering”.

`O=C(Nc1cc(C(F)(F)F)cc(C(F)(F)F)c1)Nc1c(Br)cc(Br)cc1-c1nn[nH]n1` [NS5806]: the “threshold current for inducing AP firing” value in experiment [4] (before vs 15 min after perfusion) was “dramatically increased”. In experiment [4] (current injection-triggered), the “frequency of AP firing” value is reported as “decreased”.

The record behind these values is patent US20230381139A1, “METHODS OF TREATING AND/OR PREVENTING ALZHEIMER’S DISEASE WITH R-CARVEDILOL” (priority 2020, published 2023).
